Test results: PMC4878744, “Structure, Regulation, and Inhibition of the Quorum-Sensing Signal Integrator LuxO” (PLoS Biology, 2016)

Key:
V. vulnificus LuxO-C [1] = biological target: T1, V. vulnificus LuxO-C (Vibrio vulnificus, UniProt Q8CWJ5); details: pH 7.4, 23°C; turnover number versus LuxO-C concentration only in Figure 4A
V. vulnificus LuxO-C [2] = biological target: T1, V. vulnificus LuxO-C; experiment: NADH-coupled ATPase assay, fit to one-inhibitor-per-oligomer model; format: biochemical; set-up: catalytic (C) domain only, R and D domains absent; C-terminal His6 tag; expressed in E. coli BL21(DE3); hexamer 173 kDa theoretical; details: competitive with ATP; 100 μM LuxO-C, 2 mM ATP, pH 7.4, 23°C, 4% DMSO; K is affinity relative to ATP (dimensionless ratio)

T1 sequence (Q8CWJ5 132-378): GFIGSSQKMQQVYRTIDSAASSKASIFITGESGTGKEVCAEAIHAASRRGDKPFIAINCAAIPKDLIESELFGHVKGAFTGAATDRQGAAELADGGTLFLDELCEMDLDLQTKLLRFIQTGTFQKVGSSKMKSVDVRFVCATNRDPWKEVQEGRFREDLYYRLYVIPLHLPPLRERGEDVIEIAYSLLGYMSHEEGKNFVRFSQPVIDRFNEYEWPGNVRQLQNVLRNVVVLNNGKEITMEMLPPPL

| Compound | NADH-coupled ATPase assay (V. vulnificus LuxO-C [1]) | K (= Kd^ATP / Kd^AzaU) (V. vulnificus LuxO-C [2]) |
| --- | --- | --- |
| Nc1ncnc2c1ncn2[C@@H]1O[C@H](COP(=O)(O)OP(=O)(O)OP(=O)(O)O)[C@@H](O)[C@H]1O [ATP] | V. vulnificus LuxO-C |  |
| AzaU |  | 34 ± 2 |
